Patent US11872263B2, “AIMP1 protein fragment and hair growth-promoting composition containing same as active ingredient” (CUREBIO THERAPEUTICS, priority 2016, dated 2024)

Legend:
[1] = system: dorsal hair of depilated C57BL6 mice; assay: In vivo hair regrowth after depilation of dorsal skin of mice; set-up: species or system mouse; settings: 13 days after depilation, 100 nM polypeptide, 80 μl topical once a day
Method: (§1) The hair of the dorsal skin of mice (7 weeks old male C57BL6, purchased from Orient Bio Inc.) was cut out with a clipper, and hair removal cream (Niclean, Ildong Pharmaceutical) was applied. The depilated area was about 2×2.5 cm. Mice were treated with 20% glycerol/PBS (control group), 3% Minoxidil (MNX, 140 mM), FGF7 (100 nM) or Neo-Pep of the present invention (polypeptide of SEQ ID NO: 1, 100 nM), respectively, once a day in 80 μl using brush, for 13 days (n=6 per group).
as §1, with “Specifically, the hair” for “The hair”, “of a mouse” for “of mice”, “group). For comparative observation, the dorsal skin of the mouse was photographed before and after the beginning of the test.” for “group).”

[2] = system: CD34+ hair follicle stem cells; assay: In vitro hair growth assay / BrdU proliferation assay with CD34+ hair follicle stem cells; format: cell-based, mouse; settings: each peptide 100 nM, 24 hours
Method: The hair of the dorsal skin of 7 weeks old male C57BL6 mice (purchased from Orient Bio Inc.) were cut with a clipper and skin tissue samples of the depilated dorsal region of the mice were collected. The collected skin tissue samples were immersed in medium using collagenase, DNase I, and hyaluronidase, and cells were isolated using Gentle MACSTM Dissociator (Miltenyi Biotec). After the cells were separated, the separated cells were incubated with a mouse CD34-Biotin antibody (Miltenyi Biotec). Cells and antibody solutions were incubated with streptavidin microbeads (Miltenyi Biotec) and then separated using LS column (Miltenyi Biotec). The separated cells were cultured in DMEM medium containing 10% FBS, 1% penicillin/streptomycin solution in humidified air of 95% 02 and 5% CO2 at 37° C.
Cell proliferation can be confirmed using the BrdU cell proliferation assay kit (Cell Signaling). Proliferation assays were performed using protocols presented by […]. Briefly, the cells were incubated with BrdU for 2 h. The primary BrdU detection antibody was incubated for 1 hour and the secondary anti-mouse IgG, HRP-conjugate antibody was incubated for 30 minutes.
A hair growth in vitro assay was performed using the Cyquant Assay (Thermo Fisher). […]

| Sequence | dorsal hair growth compared with control group [1] | inducing proliferation of CD34+ hair follicle stem cells (relative cell number) [2] |
| --- | --- | --- |
| KQQVSLLKEKAILQA (Homo sapiens N13 polypeptide; Neo-Pep-(21-35)) [Polypeptide N13, fragment of Neo-Pep consisting of 15 amino acids comprising KEKA] | grew much more | – |
| LKEKAILQATLREEK (Homo sapiens N14 polypeptide; Neo-Pep-(27-41)) [Polypeptide N14, fragment of Neo-Pep consisting of 15 amino acids comprising KEKA] | grew much more | – |
| AEADQIIEYLKQQVSLLKEK (Homo sapiens N4 polypeptide; Neo-Pep-(11-30)) [Polypeptide N4, fragment of Neo-Pep consisting of 20 consecutive amino acids without KEKA] | – | didn't show any effect |
| AVLKRLEQKGAEADQ (Homo sapiens N9 polypeptide; Neo-Pep-(1-15)) [Polypeptide N9, fragment of Neo-Pep consisting of 15 amino acids without KEKA] | didn't show such effect | – |
| IEYLKQQVSLLKEKAILQAT (Homo sapiens N5 polypeptide; Neo-Pep-(17-36)) [Polypeptide N5, fragment of Neo-Pep comprising KEKA] | – | induced proliferation |
| YLKQQVSLLKEKAILQATLR (Homo sapiens N6 polypeptide; Neo-Pep-(19-38)) [Polypeptide N6, fragment of Neo-Pep comprising KEKA] | – | induced proliferation |
| IEYLKQQVSLLKEKA (Homo sapiens N12 polypeptide; Neo-Pep-(17-31)) [Polypeptide N12, fragment of Neo-Pep consisting of 15 amino acids comprising KEKA] | grew much more | – |
| EADQIIEYLKQQVSL (Homo sapiens N10 polypeptide; Neo-Pep-(12-26)) [Polypeptide N10, fragment of Neo-Pep consisting of 15 amino acids without KEKA] | didn't show such effect | – |
| KGAEADQIIEYLKQQVSLLK (Homo sapiens N3 polypeptide; Neo-Pep-(9-28)) [Polypeptide N3, fragment of Neo-Pep consisting of 20 consecutive amino acids without KEKA] | – | didn't show any effect |
| ADQIIEYLKQQVSLL (Homo sapiens N11 polypeptide; Neo-Pep-(13-27)) [Polypeptide N11, fragment of Neo-Pep consisting of 15 amino acids without KEKA] | didn't show such effect | – |
| KQQVSLLKEKAILQATLREE (Homo sapiens N7 polypeptide; Neo-Pep-(21-40)) [Polypeptide N7, fragment of Neo-Pep comprising KEKA] | – | induced proliferation |
| AVLKRLEQKGAEADQIIEYL (Homo sapiens N1 polypeptide; Neo-Pep-(1-20)) [Polypeptide N1, fragment of Neo-Pep consisting of 20 consecutive amino acids without KEKA] | – | didn't show any effect |
| QVSLLKEKAILQATLREEK (Homo sapiens N8 polypeptide; Neo-Pep-(23-41)) [Polypeptide N8, fragment of Neo-Pep comprising KEKA] | – | induced proliferation |
| LKRLEQKGAEADQIIEYLKQ (Homo sapiens N2 polypeptide; Neo-Pep-(3-22)) [Polypeptide N2, fragment of Neo-Pep consisting of 20 consecutive amino acids without KEKA] | – | didn't show any effect |
